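Following 48 hours of exposure in 96-well plates, responses at five concentrations were used to interpolate endpoints linearly. GI50: concentration for 50% inhibition of growth. TGI marks complete inhibition of growth.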
Key:
Experiment in all cases: NCI tumour cell line growth inhibition, 48 h
[1] = tested on: RXF-631 renal
[2] = tested on: HOP-18 NSCLC
[3] = tested on: DLD-1 colon
[4] = tested on: KM20L2 colon
[5] = tested on: DMS 273 small cell lung
[6] = tested on: XF 498 CNS
[7] = tested on: MDA-MB-435
[8] = tested on: T-47D breast
[9] = tested on: MDA-N

SMILES | TGI [1] [µM] | TGI [2] [µM] | TGI [3] [µM] | TGI [4] [µM] | TGI [5] [µM] | TGI [6] [µM] | TGI [7] [µM] | TGI [8] [µM] | TGI [9] [µM] | GI50 [1] [µM] | GI50 [2] [µM] | GI50 [3] [µM] | GI50 [4] [µM] | GI50 [5] [µM] | GI50 [6] [µM]
CCOc1cccc2nc3cccc(C(=O)NCCN(C)C)c3nc12 | 10.5 | > 38.4 | 7.66 | 5.48 | > 100 | 3.52 | – | – | – | – | – | – | – | – | –
NC(CCSCC(F)F)C(=O)O (configuration not stated) | > 100 | > 100 | > 100 | > 100 | > 100 | > 100 | – | – | – | – | – | – | – | – | –
O=C(c1ccccc1)[C@H]1Nc2cnccc2C2c3ccccc3CC21 (some centres not stated) | > 100 | 45.6 | > 80.7 | 57.3 | > 63.9 | 64.4 | – | – | – | – | – | – | – | – | –
O=C1N[C@@H](O)[C@@H]2ON=C(c3ccccc3)[C@H]12 | > 100 | > 100 | > 100 | > 100 | > 100 | > 100 | – | – | – | – | – | – | – | – | –
COc1ccc2c(-c3cc4ccccc4o3)cc(=O)oc2c1 | > 100 | > 100 | > 100 | > 100 | > 100 | 45 | > 100 | > 100 | > 100 | – | – | – | – | – | –
c1cc[c]([Sn]([S]c2cccc3cccnc23)([c]2ccccc2)[c]2ccccc2)cc1 | 0.0804 | 0.214 | 0.101 | 0.109 | 0.0344 | 0.0524 | – | – | – | 0.0256 | 0.0784 | 0.0321 | 0.0338 | 0.0173 | 0.0241
Clc1ccc(CNc2nc3ccccc3nc2-c2cccs2)c(Cl)c1 | > 100 | > 100 | – | > 100 | > 100 | > 100 | – | – | – | – | – | – | – | – | –
CC(=O)OCCOCBr | > 100 | > 100 | > 100 | > 100 | > 100 | > 100 | – | – | – | – | – | – | – | – | –
CC(=O)c1c(C)n([O-])c2cc(C)c(C)cc2[n+]1=O | > 100 | > 100 | > 100 | > 100 | > 100 | > 100 | – | – | – | – | – | – | – | – | –
